Data published in patent publication US12522601B2, “1,3,4-oxadiazole derivative compounds as histone deacetylase 6 inhibitor, and the pharmaceutical composition comprising the same” (CHONG KUN DANG PHARMACEUTICAL CORP., priority 2020, dated 2026).

Assays:
human recombinant HDAC1 = target: T1, human recombinant HDAC1 (Homo sapiens, UniProt Q13547); test: In vitro HDAC enzyme activity inhibition assay, HDAC1 (HDAC Fluorimetric Drug Discovery Kit); format: biochemical; details: human recombinant HDAC1, Fluor de Lys-SIRT1 substrate 10 μM, 30° C. for 60 minutes
T1 construct: purchased Enzo Life Sciences, Inc. BML-SE456
T1 sequence (Q13547 whole entry): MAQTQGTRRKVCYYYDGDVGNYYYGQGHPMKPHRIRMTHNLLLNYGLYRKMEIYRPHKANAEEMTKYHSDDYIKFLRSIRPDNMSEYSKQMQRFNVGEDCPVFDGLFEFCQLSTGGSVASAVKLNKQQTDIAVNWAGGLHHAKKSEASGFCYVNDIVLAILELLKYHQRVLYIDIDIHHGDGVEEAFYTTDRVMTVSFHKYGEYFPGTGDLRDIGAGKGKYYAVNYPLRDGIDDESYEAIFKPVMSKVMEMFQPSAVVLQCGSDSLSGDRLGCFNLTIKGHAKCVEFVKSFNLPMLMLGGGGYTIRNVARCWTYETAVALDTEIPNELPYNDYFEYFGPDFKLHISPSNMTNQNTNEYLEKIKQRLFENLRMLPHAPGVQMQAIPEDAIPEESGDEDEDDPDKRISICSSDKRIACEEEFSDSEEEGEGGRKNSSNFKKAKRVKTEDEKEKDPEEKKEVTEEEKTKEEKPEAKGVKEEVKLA
Description: (§1) In order to confirm the selectivity of the compounds represented by Chemical Formula I of the present invention to HDAC6 through HDAC1 and HDAC6 enzyme activity inhibition experiments, a comparison experiment was performed using the material that has already been developed as a control group.
(§2) HDAC enzyme activity was measured using the HDAC Fluorimetric Drug Discovery Kit (Enzo Life Sciences, Inc., BML-AK511, 516). For the HDAC1 enzyme activity test, human recombinant HDAC1 (BML-SE456) was used as an enzyme source and Fluor de Lys®-SIRT1 (BNL-KI177) was used as a substrate. After dispensing 5-fold diluted compounds into a 96-well plate, 0.3 μg of enzyme and 10 μM substrate were added to each well of the plate and allowed to react at 30° C. for 60 minutes. Next, Fluor de Lys® Developer II (BML-KI176) was added and reacted for 30 minutes to complete the reaction, and then the fluorescence values (Ex 360, Em 460) were measured using a multi-plate reader (Flexstation 3, Molecular Device). The HDAC6 enzymes were tested using human recombinant HDAC6 (382180) from Calbiochem Inc., according to the same protocol as the HDAC1 enzyme activity test method. With respect to the final result values, respective IC50 values were calculated using GraphPad Prism 4.0 program, and results thereof were summarized in Table 5 below.

human recombinant HDAC6 = target: T2, human recombinant HDAC6 (Homo sapiens, UniProt Q9UBN7); test: In vitro HDAC enzyme activity inhibition assay, HDAC6 (HDAC Fluorimetric Drug Discovery Kit); format: biochemical; details: for HDAC6 Selectivity (fold): HDAC6 versus HDAC1; for IC50: human recombinant HDAC6, same protocol as the HDAC1 test
T2 construct: purchased Calbiochem Inc. 382180
T2 sequence (Q9UBN7 1-1215): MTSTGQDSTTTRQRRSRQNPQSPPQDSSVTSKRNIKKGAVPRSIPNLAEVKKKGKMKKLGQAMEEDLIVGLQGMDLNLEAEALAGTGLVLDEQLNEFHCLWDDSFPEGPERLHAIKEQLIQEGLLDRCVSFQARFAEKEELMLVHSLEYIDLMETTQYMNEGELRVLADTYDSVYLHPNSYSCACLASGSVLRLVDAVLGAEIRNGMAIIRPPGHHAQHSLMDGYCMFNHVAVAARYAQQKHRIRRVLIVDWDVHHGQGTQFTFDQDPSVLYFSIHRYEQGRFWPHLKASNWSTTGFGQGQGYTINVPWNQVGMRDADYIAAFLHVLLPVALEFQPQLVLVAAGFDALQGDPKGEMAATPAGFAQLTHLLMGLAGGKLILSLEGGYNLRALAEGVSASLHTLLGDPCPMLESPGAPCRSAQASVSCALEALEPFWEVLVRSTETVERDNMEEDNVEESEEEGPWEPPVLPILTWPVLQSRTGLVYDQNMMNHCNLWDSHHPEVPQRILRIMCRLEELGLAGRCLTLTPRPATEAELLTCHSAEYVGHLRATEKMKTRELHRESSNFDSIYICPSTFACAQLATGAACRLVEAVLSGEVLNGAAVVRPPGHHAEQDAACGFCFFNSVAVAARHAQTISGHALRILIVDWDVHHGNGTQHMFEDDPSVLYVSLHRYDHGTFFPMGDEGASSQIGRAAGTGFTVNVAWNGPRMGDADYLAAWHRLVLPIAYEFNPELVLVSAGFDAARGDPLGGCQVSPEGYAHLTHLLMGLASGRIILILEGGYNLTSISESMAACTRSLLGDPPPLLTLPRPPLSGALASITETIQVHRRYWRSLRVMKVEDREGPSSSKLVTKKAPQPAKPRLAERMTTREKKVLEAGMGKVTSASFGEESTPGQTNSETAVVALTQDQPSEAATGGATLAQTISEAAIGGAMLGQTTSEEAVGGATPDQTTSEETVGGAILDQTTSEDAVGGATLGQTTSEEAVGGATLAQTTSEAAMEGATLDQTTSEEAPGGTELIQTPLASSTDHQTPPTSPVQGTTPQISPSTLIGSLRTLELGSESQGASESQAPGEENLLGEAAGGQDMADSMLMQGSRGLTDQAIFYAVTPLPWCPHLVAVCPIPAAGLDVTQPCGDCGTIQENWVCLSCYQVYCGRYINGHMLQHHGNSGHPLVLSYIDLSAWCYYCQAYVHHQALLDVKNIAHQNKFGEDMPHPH
Description: as §1, §2

| SMILES | IC50 (human recombinant HDAC1) [nM] | HDAC6 Selectivity (fold) (human recombinant HDAC6) | IC50 (human recombinant HDAC6) [nM] |
| --- | --- | --- | --- |
| O=C(C1CCN(C2COC2)CC1)N(Cc1cn2ccc(-c3nnc(C(F)F)o3)cc2n1)c1cccc(F)c1 [Compound 4142, N-((7-(5-(difluoromethyl)-1,3,4-oxadiazol-2-yl)imidazo[1,2-a]pyridin-2-yl)methyl)-N-(3-fluorophenyl)-1-(oxetan-3-yl)piperidine-4-carboxamide] | > 50000 | 234 | 214 |
| O=C(C1COC1)N1CCN(C(=O)N(Cc2cn3ccc(-c4nnc(C(F)F)o4)cc3n2)c2ccccc2)CC1 [Compound 4102, N-((7-(5-(difluoromethyl)-1,3,4-oxadiazol-2-yl)imidazo[1,2-a]pyridin-2-yl)methyl)-4-(oxetan-3-carbonyl)-N-phenylpiperazine-1-carboxamide] | > 50000 | 164 | 305 |
| O=C(N1CCN(c2ccccn2)CC1)N(Cc1cn2ccc(-c3nnc(C(F)F)o3)cc2n1)c1cccc(F)c1 [Compound 4100, N-((7-(5-(difluoromethyl)-1,3,4-oxadiazol-2-yl)imidazo[1,2-a]pyridin-2-yl)methyl)-N-(3-fluorophenyl)-4-(pyridin-2-yl)piperazine-1-carboxamide] | > 50000 | 107 | 468 |
| O=C(N1CCN(C2CCC2)CC1)N(Cc1cn2ccc(-c3nnc(C(F)F)o3)cc2n1)c1ccccc1 [Compound 4036, 4-cyclobutyl-N-((7-(5-(difluoromethyl)-1,3,4-oxadiazol-2-yl)imidazo[1,2-a]pyridin-2-yl)methyl)-N-phenylpiperazine-1-carboxamide] | > 50000 | 321 | 156 |
| O=C(N1CCN(C2COC2)CC1)N(Cc1cn2ccc(-c3nnc(C(F)F)o3)cc2n1)c1cccc(F)c1 [Compound 4088, N-((7-(5-(difluoromethyl)-1,3,4-oxadiazol-2-yl)imidazo[1,2-a]pyridin-2-yl)methyl)-N-(3-fluorophenyl)-4-(oxetan-3-yl)piperazine-1-carboxamide] | > 50000 | 156 | 320 |
| O=C(C1CN(c2ncccn2)C1)N(Cc1cn2ccc(-c3nnc(C(F)F)o3)cc2n1)c1cccc(F)c1 [Compound 4207, N-((7-(5-(difluoromethyl)-1,3,4-oxadiazol-2-yl)imidazo[1,2-a]pyridin-2-yl)methyl)-N-(3-fluorophenyl)-1-(pyrimidin-2-yl) azetidine-3-carboxamide] | > 50000 | 298 | 168 |
| O=C(N1CCN(C2CCC2)CC1)N(Cc1cn2ccc(-c3nnc(C(F)F)o3)cc2n1)c1cccc(F)c1 [Compound 4087, 4-cyclobutyl-N-((7-(5-(difluoromethyl)-1,3,4-oxadiazol-2-yl)imidazo[1,2-a]pyridin-2-yl)methyl)-N-(3-fluorophenyl)piperazine-1-carboxamide] | > 50000 | 214 | 233 |
| CCC(=O)N1CCN(C(=O)N(Cc2cn3ccc(-c4nnc(C(F)F)o4)cc3n2)c2ccccc2)CC1 [Compound 4041, N-((7-(5-(difluoromethyl)-1,3,4-oxadiazol-2-yl)imidazo[1,2-a]pyridin-2-yl)methyl)-N-phenyl-4-propionylpiperazine-1-carboxamide] | > 50000 | 193 | 259 |
| O=C(C1CCN(C2CCC2)CC1)N(Cc1cn2ccc(-c3nnc(C(F)F)o3)cc2n1)c1cccc(F)c1 [Compound 4141, 1-cyclobutyl-N-((7-(5-(difluoromethyl)-1,3,4-oxadiazol-2-yl)imidazo[1,2-a]pyridin-2-yl)methyl)-N-(3-fluorophenyl)piperidine-4-carboxamide] | > 50000 | 204 | 245 |

More lines, now with the values ahead:

| IC50 (human recombinant HDAC1) [nM] | HDAC6 Selectivity (fold) (human recombinant HDAC6) | IC50 (human recombinant HDAC6) [nM] | SMILES |
| --- | --- | --- | --- |
| > 50000 | 131 | 381 | CN(C)C(=O)N1CC(C(=O)N(Cc2cn3ccc(-c4nnc(C(F)F)o4)cc3n2)c2ccccc2)C1 [Compound 4175, N3-((7-(5-(difluoromethyl)-1,3,4-oxadiazol-2-yl)imidazo[1,2-a]pyridin-2-yl)methyl)-N1,N1-dimethyl-N3-phenylazetidine-1,3-dicarboxamide] |
| > 50000 | 109 | 457 | CC(=O)c1ccc(Cc2cn3ccc(-c4nnc(C(F)F)o4)cc3n2)cc1 [Compound 3592, 1-(4-((7-(5-(difluoromethyl)-1,3,4-oxadiazol-2-yl)imidazo[1,2-a]pyridin-2-yl)methyl)phenyl)ethan-1-one] |
| > 50000 | 426 | 117 | CC(=O)c1cccc(NCc2cn3ccc(-c4nnc(C(F)F)o4)cc3n2)c1 [Compound 3669] |
| > 50000 | 108 | 465 | CN1CCN(C(=O)N(Cc2cn3ccc(-c4nnc(C(F)F)o4)cc3n2)c2cccc(F)c2)CC1 [Compound 4083, N-((7-(5-(difluoromethyl)-1,3,4-oxadiazol-2-yl)imidazo[1,2-a]pyridin-2-yl)methyl)-N-(3-fluorophenyl)-4-methylpiperazine-1-carboxamide] |
| > 50000 | 395 | 126 | CC(C)N1CC(C(=O)N(Cc2cn3ccc(-c4nnc(C(F)F)o4)cc3n2)c2cccc(F)c2)C1 [Compound 4190, N-((7-(5-(difluoromethyl)-1,3,4-oxadiazol-2-yl)imidazo[1,2-a]pyridin-2-yl)methyl)-N-(3-fluorophenyl)-1-isopropylazetidine-3-carboxamide] |
| > 50000 | 125 | 400 | FC(F)c1nnc(-c2ccn3cc(CNc4ccc(C(F)(F)F)cc4)nc3c2)o1 [Compound 3673, N-((7-(5-(difluoromethyl)-1,3,4-oxadiazol-2-yl)imidazo[1,2-a]pyridin-2-yl)methyl)-4-(trifluoromethyl)aniline] |
| > 50000 | 89 | 564 | CC(C)c1cccc(Cc2cn3ccc(-c4nnc(C(F)F)o4)cc3n2)c1 [Compound 3594, 2-(difluoromethyl)-5-(2-(3-isopropylbenzyl)imidazo[1,2-a]pyridin-7-yl)-1,3,4-oxadiazole] |
| > 50000 | 206 | 243 | CC(=O)N1CCC(C(=O)N(Cc2cn3ccc(-c4nnc(C(F)F)o4)cc3n2)c2cccc(F)c2)CC1 [Compound 4146, 1-acetyl-N-((7-(5-(difluoromethyl)-1,3,4-oxadiazol-2-yl)imidazo[1,2-a]pyridin-2-yl)methyl)-N-(3-fluorophenyl)piperidine-4-carboxamide] |
| > 50000 | 123 | 406 | CC(=O)c1cccc(OCc2cn3ccc(-c4nnc(C(F)F)o4)cc3n2)c1 [Compound 3721, 1-(3-((7-(5-(difluoromethyl)-1,3,4-oxadiazol-2-yl)imidazo[1,2-a]pyridin-2-yl)methoxy)phenyl)ethan-1-one] |
